Reference: patent US10196668B2, “Reagents and methods for screening MPS I, II, IIIA, IIIB, IVA, VI, and VII” (University of Washington through its Center for …, priority 2013, dated 2019)
Several values for one entry are separate records, joined by “and”; a condition that tells them apart may be missing. Equal values may be shown once. Where a name gives a salt, the structure may show the parent alone. One block for each molecule: values may come before it.

Key:
Assay type in all cases: biochemical
arylsulfatase B (ASB) = target: T1, arylsulfatase B (ASB) (Homo sapiens, UniProt P15848); assay: ASB (MPS-VI) assay with beta-NGA and Z-PUG-NAc, UHPLC-MS/MS
T1 construct: from tissue; host or cells: dried blood spot (3 mm punch)
Description: Having established the action of human hexosaminidase A on the ASB substrate, the ASB assay was developed, using the same approach developed for GALNS, namely adding beta-NGA and Z-PUG-NAc. The experiments were carried out as for the GALNS assays (see Example 10) but with 1 mM ASB substrate replacing the GALNS substrate.
(§1) Experiment 1. A 3 mm punch of a dried blood spot from a random newborn is incubated with 0.03 mL of assay cocktail consisting of 1 mM GALNS substrate in 50 mM ammonium formate pH 4.0 containing 7.5 mM barium acetate, 5.0 mM cerium acetate, 1 mM Z-PUG-NAc, and 0.01 mg of bacterial beta-N-acetylgalactosaminidase. The mixture also contains 0.005 mM internal standard. After 16 hrs at 37° C. with shaking, the mixture is quenched with 0.12 mL of acetonitrile and the sample plate is centrifuged to pellet the precipitate. Supernatant (0.12 mL) is transferred to a new plate, and 0.12 mL of water is added. The plate is placed on the autosampler of the UHPLC-MS/MS instrument (Waters Xevo TQ MS/MS with a Waters Acquity UHPLC system). A portion of the sample (0.01 mL) is injected, and the GALNS product (substrate minus sulfate), the internal standard, and the aglycones derived from the GALNS product and internal standard are quantified by multiple reaction monitoring (MS/MS). Note the internal standard added, like the GALNS product, is converted to its aglycone by the addition of bacterial beta-N-acetylgalactosaminidase.

[1] = target: T2, Recombinant human hexosaminidase A (Homo sapiens, UniProt P06865); assay: Action of hexosaminidase A on ASB substrate, UHPLC-MS/MS; conditions: 1 mM ASB substrate, 100 mM ammonium formate pH 5.6, 5 hrs at 37° C.
T2 sequence (P06865 89-529): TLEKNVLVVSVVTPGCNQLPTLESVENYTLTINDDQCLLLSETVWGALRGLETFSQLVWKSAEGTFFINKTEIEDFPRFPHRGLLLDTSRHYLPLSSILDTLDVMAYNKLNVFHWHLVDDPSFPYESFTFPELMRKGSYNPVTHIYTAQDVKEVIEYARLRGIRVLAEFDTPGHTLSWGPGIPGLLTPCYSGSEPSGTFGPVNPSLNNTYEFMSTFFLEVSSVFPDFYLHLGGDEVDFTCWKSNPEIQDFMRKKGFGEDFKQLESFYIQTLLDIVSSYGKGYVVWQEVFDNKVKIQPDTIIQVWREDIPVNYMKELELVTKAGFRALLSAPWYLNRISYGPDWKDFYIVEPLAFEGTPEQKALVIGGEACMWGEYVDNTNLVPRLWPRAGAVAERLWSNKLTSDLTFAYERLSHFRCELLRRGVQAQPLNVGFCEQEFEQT
T2 sequence (P07686 122-556 partner): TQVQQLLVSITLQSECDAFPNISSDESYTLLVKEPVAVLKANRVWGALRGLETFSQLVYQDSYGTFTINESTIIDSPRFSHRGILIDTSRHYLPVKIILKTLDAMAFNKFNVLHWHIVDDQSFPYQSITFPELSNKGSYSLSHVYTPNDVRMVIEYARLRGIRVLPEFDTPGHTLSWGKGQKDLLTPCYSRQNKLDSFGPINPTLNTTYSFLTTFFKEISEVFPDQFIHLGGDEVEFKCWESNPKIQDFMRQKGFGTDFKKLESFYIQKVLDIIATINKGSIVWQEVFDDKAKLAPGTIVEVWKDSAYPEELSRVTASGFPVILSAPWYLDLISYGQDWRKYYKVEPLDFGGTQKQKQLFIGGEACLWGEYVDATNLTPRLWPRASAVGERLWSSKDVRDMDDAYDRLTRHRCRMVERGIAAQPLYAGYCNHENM
Description: The mixture includes 1 mM ASB substrate in 100 mM ammonium formate buffer, pH 5.6 containing the indicated amount of hexosaminidase. After incubation for 5 hrs at 37° C., the mixture is analyzed by UHPLC-MS/MS. The aglycone signal is not due to contamination of the substrate with aglycone because no aglycone is seen when hexosaminidase A is omitted. The aglycone is not the result of cleavage of the ASB in the electrospray ionization source of the mass spectrometer because the amount of aglycone increases with increasing hexosaminidase A (FIG. 1), and the UHPLC retention time of the aglycone matches that of an authentic aglycone, and this is different than the retention time of the ASB substrate. Thus, hexosaminidase A acts on the ASB substrate to produce algycone. Because hexosaminidase A acts on ASB substrate to produce algycone, this enzyme cannot be used in a coupled assay of ASB, and furthermore it is important to inhibit hexosaminidase A so as not to generate aglycone directly from the ASB substrate.

[2] = target: T3, N-acetylgalactosamine-4-sulfate-sulfatase (MPS-VI enzyme) (Homo sapiens, UniProt P15848); assay: MPS-VI enzyme assay with dried blood spot punch, tandem mass spectrometry
T3 construct: from tissue; host or cells: dried blood spot (3 mm punch)
Description: The original and alternative MPS-VI substrates were compared in side-by-side enzyme assays as follows: 1 mM substrate, 10 uM internal standard in 30 uL of buffer (100 mM ammonium formate, pH 4.0, 7.5 mM barium(II) acetate, 5.0 mM cerium(III) acetate). A 3 mm punch of a dried blood spot was added, and the mixtures were incubated with shaking for 16 hours at 37 deg C. The reactions were quenched by addition of an aqueous suspension (1:1) of DEAE cellulose (Whatmann DE52) (100 uL), followed by addition of 400 uL of ethyl acetate. The mixture was mixed by up and down pipetting a few times and then centrifuged (10 min at 3000 rpm) to separate the liquid layers and pellet the DE52. A 300 uL portion of the upper ethyl acetate layer was transferred to a new well, and solvent was removed by evaporation with a stream of oil-free air. The residue was taken up in 100 uL of methanol/5 mM aqueous ammonium formate (80/20, v/v) and infused into the tandem mass spectrometer. The barium and cerium salts are present to precipitate free sulfate and phosphate present in the dried blood spot since these anions cause production inhibition of the MPS-VI enzyme. The DE52 is added to trap remaining substrate so only product and internal standard (which are charge neutral) are extracted into ethyl acetate. […]

human hexosaminidase A = target: T4, human hexosaminidase A (Homo sapiens, UniProt P06865+P07686); assay: Block of endogenous hexosaminidase A in dried blood spots in the GALNS assay; conditions: 1 mM Z-PUG-NAc in assay cocktail with dried blood spot
T4 construct: from tissue; host or cells: dried blood spot from a random newborn
T4 sequence (P06865 89-529): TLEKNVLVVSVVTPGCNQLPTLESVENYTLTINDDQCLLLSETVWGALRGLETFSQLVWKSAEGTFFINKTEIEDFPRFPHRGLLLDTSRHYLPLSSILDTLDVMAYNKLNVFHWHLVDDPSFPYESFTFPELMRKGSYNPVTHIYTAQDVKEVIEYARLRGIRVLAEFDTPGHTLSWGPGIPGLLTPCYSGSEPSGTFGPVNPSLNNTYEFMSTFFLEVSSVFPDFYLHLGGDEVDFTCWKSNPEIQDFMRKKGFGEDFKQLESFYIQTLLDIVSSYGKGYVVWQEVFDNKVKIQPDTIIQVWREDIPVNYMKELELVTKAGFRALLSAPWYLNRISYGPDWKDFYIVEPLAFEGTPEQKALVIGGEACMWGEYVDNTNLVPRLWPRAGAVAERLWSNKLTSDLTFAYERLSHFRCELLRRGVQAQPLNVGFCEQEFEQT
T4 sequence (P07686 122-556): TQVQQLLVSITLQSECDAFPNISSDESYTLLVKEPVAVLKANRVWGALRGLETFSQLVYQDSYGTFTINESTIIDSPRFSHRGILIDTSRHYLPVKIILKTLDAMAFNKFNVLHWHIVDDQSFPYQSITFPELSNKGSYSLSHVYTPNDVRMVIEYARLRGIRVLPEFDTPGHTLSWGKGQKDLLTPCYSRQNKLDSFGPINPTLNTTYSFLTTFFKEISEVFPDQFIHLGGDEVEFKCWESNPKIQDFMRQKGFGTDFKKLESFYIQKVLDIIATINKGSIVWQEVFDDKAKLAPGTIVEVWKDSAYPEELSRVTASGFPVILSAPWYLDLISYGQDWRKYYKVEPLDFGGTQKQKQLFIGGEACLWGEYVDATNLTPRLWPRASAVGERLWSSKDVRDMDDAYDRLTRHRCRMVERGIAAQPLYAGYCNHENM
Description: as §1

[3] = target: T5, iduronic acid 2-sulfatase (Homo sapiens, UniProt P22304); assay: Sulfatase assay for MPS-II with second enzyme alpha-L-iduronidase; conditions: with iduronidase versus without
T5 construct: from tissue; host or cells: dried blood spot (3 mm punch)
T5 sequence (P22304 34-550): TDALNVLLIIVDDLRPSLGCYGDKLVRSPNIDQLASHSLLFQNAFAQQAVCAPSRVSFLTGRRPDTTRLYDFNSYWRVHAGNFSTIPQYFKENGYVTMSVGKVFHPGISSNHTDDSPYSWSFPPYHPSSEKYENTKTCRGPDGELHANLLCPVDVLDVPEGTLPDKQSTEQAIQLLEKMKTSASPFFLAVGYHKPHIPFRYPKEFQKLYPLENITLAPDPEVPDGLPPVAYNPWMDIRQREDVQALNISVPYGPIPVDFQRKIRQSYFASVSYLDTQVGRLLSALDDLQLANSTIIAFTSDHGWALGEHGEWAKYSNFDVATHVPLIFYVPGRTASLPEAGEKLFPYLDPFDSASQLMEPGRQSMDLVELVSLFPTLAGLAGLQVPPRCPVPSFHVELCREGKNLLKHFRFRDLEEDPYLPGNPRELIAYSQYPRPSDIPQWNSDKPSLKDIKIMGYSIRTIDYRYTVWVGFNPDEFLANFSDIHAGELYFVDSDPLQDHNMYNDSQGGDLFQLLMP
Description: In the assay, a second enzyme, alpha-L-iduronidase (a glycohydrolase) is added to the assay cocktail, which converts Initial MPS-II Product to Final MPS-II Product by removing the iduronic acid residue leaving the aglycone. The iduronidase can be present in the assay cocktail that is incubated with the dried blood spot, or it can be added after the first incubation with the dried blood spot followed by a second incubation period. The amount of iduronidase added is sufficient to convert all Initial MPS-II Product to Final MPS-II Product. The assay cocktail also contains Initial MPS-II Internal Standard (same as Initial MPS-II Product but, for example, with 5 deuteriums in the benzoyl group), which is converted by iduronidase to Final MPS-II Internal Standard. Both Final MPS-II Product and Final MPS-II Internal Standard are detected by tandem mass spectrometry, which enables the amount of Final MPS-II Product to be quantified. […] The analytes are detected by multiple reaction monitoring.
Thus the assay sensitivity has been improved by about 100-fold. […] With the assay of the invention, this desulfation is of no concern because the product being detected is the aglycone (Final MPS-II Product).

[4] = Expt. 1: 3 mm dried blood spot punch, 1 mM Z-PUG-NAc, 0.01 mg beta-NGA
[5] = Expt. 2: 3 mm filter paper punch (no blood), 1 mM Z-PUG-NAc, 0.01 mg of bacterial enzyme
[6] = Expt. 3: 3 mm dried blood spot punch, 1 mM Z-PUG-NAc, no beta-NGA
[7] = Expt. 4: 3 mm filter paper punch (no blood), nothing added

T1 sequence (P15848 37-533): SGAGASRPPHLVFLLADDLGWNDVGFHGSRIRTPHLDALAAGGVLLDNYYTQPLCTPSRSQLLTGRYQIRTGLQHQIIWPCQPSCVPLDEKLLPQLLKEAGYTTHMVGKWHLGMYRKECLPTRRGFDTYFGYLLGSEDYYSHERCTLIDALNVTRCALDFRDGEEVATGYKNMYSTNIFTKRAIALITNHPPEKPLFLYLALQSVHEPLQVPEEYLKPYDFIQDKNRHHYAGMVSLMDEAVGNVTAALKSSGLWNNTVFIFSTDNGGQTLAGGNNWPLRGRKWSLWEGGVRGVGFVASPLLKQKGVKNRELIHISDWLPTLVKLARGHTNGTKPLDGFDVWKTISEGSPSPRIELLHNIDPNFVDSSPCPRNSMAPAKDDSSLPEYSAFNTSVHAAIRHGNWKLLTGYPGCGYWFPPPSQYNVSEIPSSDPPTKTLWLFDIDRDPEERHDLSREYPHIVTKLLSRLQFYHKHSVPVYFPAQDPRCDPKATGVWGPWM
T3 sequence (P15848 37-533): as above

Molecule: CCCCC(=O)N(CCCCCNC(=O)c1ccccc1)CCC(=O)Nc1ccc(OC2OC(CO)C(OS(=O)(=O)O)C(O)C2NC(C)=O)cc1 (stereo not shown) [ASB substrate]
- ASB product (substrate without sulfate) peak area (arylsulfatase B (ASB); [4]): 154,000
- aglycone peak area (product without sugar) (arylsulfatase B (ASB); [4]): 1,570,000
- ASB product (substrate without sulfate) peak area (arylsulfatase B (ASB); [5]): 404
- aglycone peak area (product without sugar) (arylsulfatase B (ASB); [5]): 58,300
- ASB product (substrate without sulfate) peak area (arylsulfatase B (ASB); [6]): 371,000
- aglycone peak area (product without sugar) (arylsulfatase B (ASB); [6]): 39,900
- ASB product (substrate without sulfate) peak area (arylsulfatase B (ASB); [7]): 3,340 and 3,430
- aglycone peak area (product without sugar) (arylsulfatase B (ASB); [7]): 33,800
- aglycone release from substrate by hexosaminidase A [1]: acts on the ASB substrate to liberate aglycone

Molecule: CCCCC(=O)N(CCCCCNC(=O)c1ccccc1)CCC(=O)Nc1ccc(OC2OC(CO)C(OS(=O)(=O)O)C(O)C2NC(C)=O)cc1 [Alternative MPS-VI, Sodium (2R,3R,4R,5R,6S)-5-acetamido-6(4(3-(N (5-benzamidopentyl)-pentanamido)propanamido)phenoxy)-4-hydroxy-2-(hydroxymethyl)tetrahydro-2H-pyran-3-yl sulfate]
- Enzymatic Activity ([2]; 1 mM substrate, 3 mm dried blood spot punch, pH 4.0, 16 hours at 37 deg C): 1.5 umole/hr/L blood
- blood-no blood assay ratio ([2]; activity with dried blood spot punch to that with blood-free punch): 77.9

Continued, values first:

- inhibition of hexosaminidase A (human hexosaminidase A): fully block hexosaminidase A
Molecule: CC(=O)N[C@H]1/C(=N/OC(=O)Nc2ccccc2)O[C@H](CO)[C@@H](O)[C@@H]1O [Z-PUG-NAc, (Z)—O-(2-acetamido-2-deoxy-D-glucopyranosylidene)-amino N-phenylcarbamate]

- improvement of assay sensitivity by second enzyme [3]: about 100 fold
B1: iduronidase: human alpha-L-iduronidase (a glycohydrolase) obtained by overexpression in mammalian cells, second enzyme (protein, UniProt P35475 28-653, looked up)
Alpha-L-iduronidase: APHLVHVDAARALWPLRRFWRSTGFCPPLPHSQADQYVLSWDQQLNLAYVGAVPHRGIKQVRTHWLLELVTTRGSTGRGLSYNFTHLDGYLDLLRENQLLPGFELMGSASGHFTDFEDKQQVFEWKDLVSSLARRYIGRYGLAHVSKWNFETWNEPDHHDFDNVSMTMQGFLNYYDACSEGLRAASPALRLGGPGDSFHTPPRSPLSWGLLRHCHDGTNFFTGEAGVRLDYISLHRKGARSSISILEQEKVVAQQIRQLFPKFADTPIYNDEADPLVGWSLPQPWRADVTYAAMVVKVIAQHQNLLLANTTSAFPYALLSNDNAFLSYHPHPFAQRTLTARFQVNNTRPPHVQLLRKPVLTAMGLLALLDEEQLWAEVSQAGTVLDSNHTVGVLASAHRPQGPADAWRAAVLIYASDDTRAHPNRSVAVTLRLRGVPPGPGLVYVTRYLDNGLCSPDGEWRRLGRPVFPTAEQFRRMRAAEDPVAAAPRPLPAGGRLTLRPALRLPSLLLVHVCARPEKPPGQVTRLRALPLTQGQLVLVWSDEHVGSKCLWTYEIQFSQDGKAYTPVSRKPSTFNLFVFSPDTGAVSGSYRVRALDYWARPGPFSDPVPYLEVPVPRGPPSPGNP
